≈ marks a conversion by molar mass, not a printed value. Bridge positions count the residues as written; N and C are the ends. Square brackets hold non-standard residues; d marks the D form. Peptide text beside a SMILES is read from it. * marks the point of attachment. ξ: configuration not given here. X29 = Cc1ccc(CO[C@@H](CN)C(=O)*)cc1; X9 = Cc1ccc(CO[C@@H](CCN)C(=O)*)cc1; dCha = N[C@H](CC1CCCCC1)C(=O)O; Thr(3ξ) = CC(O)[C@H](N)C(=O)O; X1 = CC(C)CN1CCNC[C@H]1C(=O)*; X28 = NCCC(C(=O)*)c1ccccc1Cl; X20 = NCC(Cc1ccccc1F)C(=O)*; X4 = CC(C)CC1CNCC(C(=O)*)C1; X15 = NCCC(CC1CCCC1)C(=O)*; X22 = NC(CCC(=O)*)C1CCCCC1; X24 = NCCC(Cc1ccsc1)C(=O)*; Dab = NCC[C@H](N)C(=O)O; Dap = NC[C@H](N)C(=O)O
Columns and labels:
Format in all cases: cell-based
Pseudomonas aeruginosa = system: Pseudomonas aeruginosa
Method in brief: (§1)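 Values are minimum inhibitory concentrations, reported in μg/mL. Compounds were tested for susceptibility against up to nine strains per organism, including resistant isolates.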

Klebsiella pneumoniae = system: Klebsiella pneumoniae
Method in brief: as §1

Acinetobacter baumannii = system: Acinetobacter baumannii
Method in brief: as §1

Escherichia coli = system: Escherichia coli
Method in brief: as §1

Row | MIC P. aeruginosa 068 (Pseudomonas aeruginosa) [mg/L] | MIC P. aeruginosa 070 (Pseudomonas aeruginosa) [mg/L] | MIC P. aeruginosa ATCC 27853 (Pseudomonas aeruginosa) [mg/L] | MIC P. aeruginosa CCUG 59347 (Pseudomonas aeruginosa) [mg/L] | MIC K. pneumoniae 063 (Klebsiella pneumoniae) [mg/L] | MIC K. pneumoniae 065 (Klebsiella pneumoniae) [mg/L] | MIC K. pneumoniae ATCC 13882 (Klebsiella pneumoniae) [mg/L] | MIC A. baumanii 053 (Acinetobacter baumannii) [mg/L] | MIC A. baumanii 056 (Acinetobacter baumannii) [mg/L] | MIC A. baumanii ATCC BAA-747 (Acinetobacter baumannii) [mg/L] | MIC A. baumanii NCTC 13424 (Acinetobacter baumannii) [mg/L] | MIC E. coli 058 (Escherichia coli) [mg/L] | MIC E. coli 061 (Escherichia coli) [mg/L] | MIC E. coli ATCC 25922 (Escherichia coli) [mg/L] | MIC K. pneumoniae ATCC 4352 (Klebsiella pneumoniae) [mg/L] | MIC E. coli NCTC 9001 (Escherichia coli) [mg/L] | Compound
1 | 16 (≈ 14.1 µM) | 16 (≈ 14.1 µM) | 0.5 (≈ 0.44 µM) | 1 (≈ 0.879 µM) | 64 (≈ 56.3 µM) | 8 (≈ 7.03 µM) | 0.25 (≈ 0.22 µM) | >64 | >64 | 0.25 (≈ 0.22 µM) | 0.25 (≈ 0.22 µM) | 8 (≈ 7.03 µM) | 16 (≈ 14.1 µM) | 0.25 (≈ 0.22 µM) | – | – | CC(C)C[C@@H]1NC(=O)[C@@H](CC2CCCCC2)NC(=O)[C@H](CCN)NC(=O)[C@@H](NC(=O)[C@H](CCN)NC(=O)[C@@H](NC(=O)[C@@H]2CNCCN2CC(C)C)C(C)O)CCNC(=O)[C@H]([C@@H](C)O)NC(=O)[C@H](CCN)NC(=O)[C@H](CCN)NC1=O (stereo partly drawn) [Example 52, (S)-1-isobutylpiperazine-2-carbonyl polymyxin [D-cyclohexylalanine]-6 nonapeptide] (X1-[Thr(3ξ)][Dab][Dab][Dab][dCha]L[Dab][Dab]T; lactam 3-C)
2 | 8 (≈ 6.97 µM) | 16 (≈ 13.9 µM) | 0.5 (≈ 0.435 µM) | 0.5 (≈ 0.435 µM) | 64 (≈ 55.7 µM) | 8 (≈ 6.97 µM) | 0.125 (≈ 0.109 µM) | >64 | >64 | 0.5 (≈ 0.435 µM) | 0.5 (≈ 0.435 µM) | 4 (≈ 3.48 µM) | 32 (≈ 27.9 µM) | 0.125 (≈ 0.109 µM) | – | – | CC(C)C[C@@H]1NC(=O)[C@@H](CC2CCCCC2)NC(=O)[C@H](CCN)NC(=O)[C@@H](NC(=O)[C@H](CCN)NC(=O)[C@@H](NC(=O)C(CN)Cc2ccccc2F)[C@@H](C)O)CCNC(=O)[C@H]([C@@H](C)O)NC(=O)[C@H](CCN)NC(=O)[C@H](CCN)NC1=O (stereo partly drawn) [Example 62, 3-amino-2-(2-fluorobenzyl) propanoyl] (X20-T[Dab][Dab][Dab][dCha]L[Dab][Dab]T; lactam 3-C)
3 | 8 (≈ 7.13 µM) | 8 (≈ 7.13 µM) | 0.25 (≈ 0.223 µM) | 0.5 (≈ 0.445 µM) | >64 | 4 (≈ 3.56 µM) | 0.125 (≈ 0.111 µM) | 64 (≈ 57 µM) | 32 (≈ 28.5 µM) | 0.125 (≈ 0.111 µM) | 0.125 (≈ 0.111 µM) | 4 (≈ 3.56 µM) | 16 (≈ 14.3 µM) | 0.25 (≈ 0.223 µM) | – | – | CC(C)C[C@@H]1NC(=O)[C@@H](CC2CCCCC2)NC(=O)[C@H](CCN)NC(=O)[C@@H](NC(=O)[C@H](CN)NC(=O)[C@@H](NC(=O)CCC(N)C2CCCCC2)[C@@H](C)O)CCNC(=O)[C@H]([C@@H](C)O)NC(=O)[C@H](CCN)NC(=O)[C@H](CCN)NC1=O (stereo partly drawn) [Example 63, 4-amino-4-cyclohexylbutanoyl L-Thr-L-Dap-polymyxin [D-cyclohexylalanine]-6 heptapeptide.] (X22-T[Dap][Dab][Dab][dCha]L[Dab][Dab]T; lactam 3-C)
4 | 1 (≈ 0.88 µM) | 1 (≈ 0.88 µM) | 0.25 (≈ 0.22 µM) | 0.5 (≈ 0.44 µM) | 16 (≈ 14.1 µM) | 1 (≈ 0.88 µM) | 0.25 (≈ 0.22 µM) | >64 | 64 (≈ 56.3 µM) | 0.25 (≈ 0.22 µM) | 0.25 (≈ 0.22 µM) | 2 (≈ 1.76 µM) | 16 (≈ 14.1 µM) | 0.125 (≈ 0.11 µM) | – | – | CC(C)C[C@@H]1NC(=O)[C@@H](CC2CCCCC2)NC(=O)[C@H](CCN)NC(=O)[C@@H](NC(=O)[C@H](CN)NC(=O)[C@@H](NC(=O)C(CCN)Cc2ccsc2)[C@@H](C)O)CCNC(=O)[C@H]([C@@H](C)O)NC(=O)[C@H](CCN)NC(=O)[C@H](CCN)NC1=O (stereo partly drawn) [Example 68, 4-amino-2-(thiophen-3-ylmethyl)butanoyl L-Thr-L-Dap-polymyxin [D-cyclohexylalanine]-6 heptapeptide.] (X24-T[Dap][Dab][Dab][dCha]L[Dab][Dab]T; lactam 3-C)
5 | 8 (≈ 6.89 µM) | 16 (≈ 13.8 µM) | 0.25 (≈ 0.215 µM) | 0.25 (≈ 0.215 µM) | 64 (≈ 55.2 µM) | 4 (≈ 3.45 µM) | 0.25 (≈ 0.215 µM) | 64 (≈ 55.2 µM) | 32 (≈ 27.6 µM) | 0.125 (≈ 0.108 µM) | 0.125 (≈ 0.108 µM) | 4 (≈ 3.45 µM) | 16 (≈ 13.8 µM) | 0.125 (≈ 0.108 µM) | 0.25 (≈ 0.215 µM) | 0.125 (≈ 0.108 µM) | Cc1ccc(CO[C@@H](CCN)C(=O)N[C@H](C(=O)N[C@@H](CN)C(=O)N[C@H]2CCNC(=O)[C@H]([C@@H](C)O)NC(=O)[C@H](CCN)NC(=O)[C@H](CCN)NC(=O)[C@H](CC(C)C)NC(=O)[C@@H](CC3CCCCC3)NC(=O)[C@H](CCN)NC2=O)[C@@H](C)O)cc1 [Example 71, (S)-4-amino-2-((4-methylbenzyl)oxy) butanoyl L-Thr-L-Dap-polymyxin [D-cyclohexylalanine]-6 heptapeptide.] (X9-T[Dap][Dab][Dab][dCha]L[Dab][Dab]T; lactam 3-C)
6 | 1 (≈ 0.88 µM) | 1 (≈ 0.88 µM) | 0.5 (≈ 0.44 µM) | 0.5 (≈ 0.44 µM) | 8 (≈ 7.04 µM) | 2 (≈ 1.76 µM) | 0.25 (≈ 0.22 µM) | 64 (≈ 56.3 µM) | 16 (≈ 14.1 µM) | 0.25 (≈ 0.22 µM) | 0.125 (≈ 0.11 µM) | 1 (≈ 0.88 µM) | 2 (≈ 1.76 µM) | 0.125 (≈ 0.11 µM) | – | 0.125 (≈ 0.11 µM) | CC(C)CC1CNCC(C(=O)N[C@H](C(=O)N[C@@H](CCN)C(=O)N[C@H]2CCNC(=O)[C@H]([C@@H](C)O)NC(=O)[C@H](CCN)NC(=O)[C@H](CCN)NC(=O)[C@H](CC(C)C)NC(=O)[C@@H](CC3CCCCC3)NC(=O)[C@H](CCN)NC2=O)[C@@H](C)O)C1 (stereo partly drawn) [Example 73] (X4-T[Dab][Dab][Dab][dCha]L[Dab][Dab]T; lactam 3-C)
7 | 2 (≈ 1.78 µM) | 2 (≈ 1.78 µM) | 0.25 (≈ 0.223 µM) | 0.25 (≈ 0.223 µM) | 16 (≈ 14.3 µM) | 1 (≈ 0.891 µM) | 0.125 (≈ 0.111 µM) | >64 | 64 (≈ 57 µM) | 0.125 (≈ 0.111 µM) | 0.125 (≈ 0.111 µM) | 2 (≈ 1.78 µM) | 16 (≈ 14.3 µM) | 0.125 (≈ 0.111 µM) | – | – | CC(C)C[C@@H]1NC(=O)[C@@H](CC2CCCCC2)NC(=O)[C@H](CCN)NC(=O)[C@@H](NC(=O)[C@H](CN)NC(=O)[C@@H](NC(=O)C(CCN)CC2CCCC2)[C@@H](C)O)CCNC(=O)[C@H]([C@@H](C)O)NC(=O)[C@H](CCN)NC(=O)[C@H](CCN)NC1=O (stereo partly drawn) [Example 75, 4-amino-2-(cyclopentylmethyl) butanoyl L-Thr-L-Dap-polymyxin [D-cyclohexylalanine]-6 heptapeptide.] (X15-T[Dap][Dab][Dab][dCha]L[Dab][Dab]T; lactam 3-C)
8 | – | – | 0.5 (≈ 0.434 µM) | 0.5 (≈ 0.434 µM) | – | – | 0.25 (≈ 0.217 µM) | – | – | 0.5 (≈ 0.434 µM) | 0.5 (≈ 0.434 µM) | 8 (≈ 6.95 µM) | – | 0.125 (≈ 0.109 µM) | – | – | CC(C)C[C@@H]1NC(=O)[C@@H](CC2CCCCC2)NC(=O)[C@H](CCN)NC(=O)[C@@H](NC(=O)[C@H](CN)NC(=O)[C@@H](NC(=O)C(CCN)c2ccccc2Cl)[C@@H](C)O)CCNC(=O)[C@H]([C@@H](C)O)NC(=O)[C@H](CCN)NC(=O)[C@H](CCN)NC1=O (stereo partly drawn) [Example 76, 4-amino-2-(2-chlorophenyl) butanoyl L-Thr-L-Dap-polymyxin [D-cyclohexylalanine]-6 heptapeptide.] (X28-T[Dap][Dab][Dab][dCha]L[Dab][Dab]T; lactam 3-C)
9 | – | – | 0.5 (≈ 0.429 µM) | 0.5 (≈ 0.429 µM) | – | 8 (≈ 6.87 µM) | 0.5 (≈ 0.429 µM) | – | – | 1 (≈ 0.858 µM) | 0.5 (≈ 0.429 µM) | 8 (≈ 6.87 µM) | – | 0.25 (≈ 0.215 µM) | – | – | CC(C)C[C@@H]1NC(=O)[C@@H](CC2CCCCC2)NC(=O)[C@H](CCN)NC(=O)[C@@H](NC(=O)[C@H](CCN)NC(=O)[C@@H](NC(=O)C(CCN)c2ccccc2Cl)[C@@H](C)O)CCNC(=O)[C@H]([C@@H](C)O)NC(=O)[C@H](CCN)NC(=O)[C@H](CCN)NC1=O (stereo partly drawn) [Example 77, 4-amino-2-(2-chlorophenyl) butanoyl polymyxin [D-cyclohexylalanine]-6 nonapeptide] (X28-T[Dab][Dab][Dab][dCha]L[Dab][Dab]T; lactam 3-C)
10 | – | – | 0.25 (≈ 0.218 µM) | 0.25 (≈ 0.218 µM) | – | – | 0.25 (≈ 0.218 µM) | – | – | 0.25 (≈ 0.218 µM) | 0.06 (≈ 0.0523 µM) | 4 (≈ 3.49 µM) | – | 0.25 (≈ 0.218 µM) | – | – | Cc1ccc(CO[C@@H](CN)C(=O)N[C@H](C(=O)N[C@@H](CN)C(=O)N[C@H]2CCNC(=O)[C@H]([C@@H](C)O)NC(=O)[C@H](CCN)NC(=O)[C@H](CCN)NC(=O)[C@H](CC(C)C)NC(=O)[C@@H](CC3CCCCC3)NC(=O)[C@H](CCN)NC2=O)[C@@H](C)O)cc1 [Example 78, (S)-3-amino-2-((4-methylbenzyl)oxy) propanoyl L-Thr-L-Dap-polymyxin [D-cyclohexylalanine]-6 heptapeptide] (X29-T[Dap][Dab][Dab][dCha]L[Dab][Dab]T; lactam 3-C)

Source: US12146004B2, “Polymyxin compounds and uses thereof” (priority 2014, dated 2024)
